Source: ChEMBL document CHEMBL5634155, “Design and synthesis of pyrazole derivatives against neutrophilic inflammation” (Eur J Med Chem, 2023)
The source made the active and inactive calls. The rule behind the calls is not given here.

What was measured:
Neutrophil [1] = assay: Inhibition of fMLF/CB-induced human Neutrophil activation assessed as reduction in superoxide anion generation preincubated with compound for 2 mins prior to CB induction for 3 mins followed by fMLF addition by spectrophotometric analysis; type: functional, cell-based
Neutrophil [2] = assay: Inhibition of fMLF/CB-induced human Neutrophil activation assessed as reduction in superoxide anion generation at 10 uM preincubated with compound for 2 mins prior to CB induction for 3 mins followed by fMLF addition by spectrophotometric analysis relative to control; type: functional; conditions: 5 min
Neutrophil [3] = assay: Inhibition of fMLF/CB-induced human Neutrophil activation assessed as reduction in elastase release using MeO-Suc-Ala-Ala-Pro-Val-pnitroanilide as substrate incubated for 5 mins; type: functional, cell-based
Neutrophil [4] = assay: Inhibition of fMLF/CB-induced human Neutrophil activation assessed as reduction in elastase release at 10 uM using MeO-Suc-Ala-Ala-Pro-Val-pnitroanilide as substrate incubated for 5 mins relative to control; type: functional
Neutrophil [5] = assay: Inhibition of fMLF/CB-induced human Neutrophil activation assessed as reduction in superoxide anion generation at 1 to 1000 nM preincubated with compound for 2 mins prior to CB induction for 3 mins followed by fMLF addition in presence of KT5720 by spectrophotometric analysis; type: functional, cell-based; conditions: dose 1-1000 nM, time 5.0 min
[6] = AUC (0 to infinity) in C57BL/6 mouse at 5 mg/kg, iv measured upto 360 mins by HPLC analysis; type: ADME, organism-based; conditions: in vivo
[7] = Half life in C57BL/6 mouse at 5 mg/kg, iv measured upto 360 mins by HPLC analysis; type: ADME, organism-based; conditions: in vivo
[8] = Clearance in C57BL/6 mouse at 5 mg/kg, iv measured upto 360 mins by HPLC analysis; type: ADME, organism-based; conditions: in vivo
[9] = Apparent volume of distribution in C57BL/6 mouse at 5 mg/kg, iv measured upto 360 mins by HPLC analysis; type: ADME, organism-based; conditions: in vivo, 6 h

SMILES | IC50 (Neutrophil [1]) [µM] | inhibition at 10 µM (Neutrophil [2]) [%] | IC50 (Neutrophil [3]) [µM] | inhibition at 10 µM (Neutrophil [4]) [%] | inhibition (Neutrophil [5]) | AUC(0-inf) [6] [ng·h/mL] | half-life [7] [h] | clearance [8] [mL/min] | Vz [9] [mL]
c1ccc(-c2cc(-c3ccco3)nn2CC2CCCCC2)cc1 | 0.2 | 99.3 | 2.42 | 109 | – | – | – | – | –
O=C(c1ccccc1)n1nc(-c2ccco2)c2ccccc21 | 0.17 | 59.7 | – | – | – | – | – | – | –
COc1ccc(-c2nn(Cc3cccc(F)c3)cc2-c2ccccc2)cc1OC | > 10 | 33.7 | > 10 | 16 | – | – | – | – | –
O=[N+]([O-])c1cccc2c(-c3ccc(CO)o3)nn(Cc3ccccc3)c12 | 1.81 | 82.6 | 7.58 | 68.3 | – | – | – | – | –
O=Cc1ccc(-c2nn(Cc3ccccc3Br)c3ccccc23)o1 | 0.19 | 67.4 | 2.27 | 106 | – | – | – | – | –
CCC(=O)c1ccc(-c2nn(Cc3ccccc3F)c3ccccc23)o1 | 0.18 | 106 | 2.54 | 93.4 | – | – | – | – | –
O=Cc1ccc(-c2nn(CC3CCCCC3)c3ccccc23)o1 | 0.17 | 63.4 | 1.18 | 102 | – | – | – | – | –
c1ccc(Cn2nc(-c3ccco3)c3ccccc32)cc1 | 2.32 | 71.8 | > 10 | 20.4 | – | – | – | – | –
CCCCCCCn1nc(-c2ccc(C(=O)O)o2)c2ccccc21 | 2.03 | 98.7 | 1.92 | 112 | – | – | – | – | –
CCCCCCCn1nc(-c2ccc(C=O)o2)c2ccccc21 | > 10 | 5.88 | 2.56 | 67.1 | – | – | – | – | –
O=Cc1ccc(-c2nn(Cc3ccccc3F)c3ccccc23)o1 | 0.71 | 78.2 | 5.27 | 84.7 | – | – | – | – | –
Fc1cccc(Cn2nc(-c3cccs3)cc2-c2ccccc2)c1 | 0.0762 | 73.3 | > 10 | 35.5 | – | – | – | – | –
COc1cccc(Cn2nc(-c3ccccc3)cc2-c2ccccc2)c1 | > 10 | 8.5 | > 10 | 1.65 | – | – | – | – | –
O=Cc1ccc(-c2nn(Cc3ccccc3)c3ccccc23)o1 | 1 | 75.2 | 3.68 | 89.7 | – | – | – | – | –
c1ccc(Cn2cc(-c3ccccc3)c(-c3ccco3)n2)cc1 | – | 94.2 | > 10 | 101 | – | – | – | – | –
Fc1ccccc1Cn1nc(-c2ccco2)c2ccccc21 | 1.05 | 100 | 2.11 | 94.5 | – | – | – | – | –
c1ccc(Cn2nc(-c3ccccc3)cc2-c2ccccc2)cc1 | 2.83 | 63.6 | > 10 | 36.8 | – | – | – | – | –
Brc1ccccc1Cn1nc(-c2ccco2)c2ccccc21 | 1.47 | 93.1 | 4.84 | 78 | – | – | – | – | –
COc1cccc(Cn2cc(-c3ccccc3)c(-c3ccccc3)n2)c1 | 164 | 68.6 | > 10 | 25 | – | – | – | – | –
Fc1cccc(Cn2nc(-c3ccccc3)cc2-c2ccccc2)c1 | > 10 | 48.3 | > 10 | 17.6 | – | – | – | – | –
O=C(O)c1ccc(-c2nn(Cc3ccccc3)c3ccccc23)o1 | > 10 | 43.4 | > 10 | 16.8 | – | – | – | – | –
COc1ccc(-c2cc(-c3ccccc3)n(Cc3cccc(F)c3)n2)cc1OC | > 10 | 44.5 | > 10 | 38.5 | – | – | – | – | –
COc1ccccc1C(=O)n1nc(-c2ccc(C=O)o2)c2ccccc21 | > 10 | 10.4 | > 10 | 31.8 | – | – | – | – | –
c1ccc(-c2cc(-c3cccs3)nn2CC2CCCCC2)cc1 | > 10 | 39 | > 10 | 15.2 | – | – | – | – | –
c1ccc(Cn2cc(-c3ccccc3)c(-c3cccs3)n2)cc1 | 145 | 65.7 | > 10 | 23.5 | – | – | – | – | –
CCCCCCCn1nc(-c2ccco2)cc1-c1ccccc1 | 0.694 | 101 | 2.13 | 115 | – | – | – | – | –
Fc1ccccc1Cn1nc(-c2ccccc2)cc1-c1ccccc1 | 4.69 | 61.8 | > 10 | 35 | – | – | – | – | –

SMILES | IC50 (Neutrophil [1]) [µM] | inhibition at 10 µM (Neutrophil [2]) [%] | IC50 (Neutrophil [3]) [µM] | inhibition at 10 µM (Neutrophil [4]) [%] | inhibition (Neutrophil [5]) | AUC(0-inf) [6] [ng·h/mL] | half-life [7] [h] | clearance [8] [mL/min] | Vz [9] [mL]
Fc1cccc(Cn2nc(-c3ccco3)cc2-c2ccccc2)c1 | 0.0459 | 94.6 | 3.57 | 76.6 | – | – | – | – | –
Fc1cccc(Cn2cc(-c3ccccc3)c(-c3ccco3)n2)c1 | – | 90.2 | 2.05 | 100 | – | – | – | – | –
CCCCCCCn1cc(-c2ccccc2)c(-c2ccccc2)n1 | > 10 | 0.72 | > 10 | 16.9 | – | – | – | – | –
Fc1ccccc1Cn1nc(-c2cccs2)cc1-c1ccccc1 | 0.0133 | 72.2 | > 10 | 38.2 | Active | 900 | 1.03 | 1.85 | 165
COc1ccccc1C(=O)n1nc(-c2ccco2)c2ccccc21 | > 10 | 14.5 | > 10 | -0.2 | – | – | – | – | –
c1ccc(-c2cn(CC3CCCCC3)nc2-c2ccccc2)cc1 | > 10 | 6.73 | > 10 | 8.93 | – | – | – | – | –
c1ccc(-c2cn(CC3CCCCC3)nc2-c2ccco2)cc1 | 833 | 104 | 1.19 | 109 | – | – | – | – | –
O=C(O)c1ccc(-c2nn(CC3CCCCC3)c3ccccc23)o1 | 4.93 | 73.2 | > 10 | 43.6 | – | – | – | – | –
CCCCCCCn1cc(-c2ccccc2)c(-c2ccco2)n1 | – | 102 | 1.08 | 110 | – | – | – | – | –
c1ccc(-c2cc(-c3ccccc3)n(CC3CCCCC3)n2)cc1 | > 10 | 40.8 | > 10 | 8.16 | – | – | – | – | –
CCCCCCCn1nc(-c2ccccc2)cc1-c1ccccc1 | > 10 | 4.58 | > 10 | 1.6 | – | – | – | – | –
c1ccc(Cn2cc(-c3ccccc3)c(-c3ccccc3)n2)cc1 | 201 | 61.6 | > 10 | 6.79 | – | – | – | – | –
O=Cc1ccc(-c2cc(-c3ccccc3)n(Cc3ccccc3)n2)o1 | 1.55 | 80.8 | 1.84 | 96.1 | – | – | – | – | –
CCCCCCCn1cc(-c2ccccc2)c(-c2cccs2)n1 | > 10 | -5.72 | > 10 | 21 | – | – | – | – | –
CCCCCCCn1nc(-c2ccco2)c2ccccc21 | > 10 | 8.38 | > 10 | 44.2 | – | – | – | – | –
O=Cc1ccc(-c2nn(C(=O)c3ccccc3)c3ccccc23)o1 | > 10 | 10.1 | > 10 | 18.1 | – | – | – | – | –
COc1ccc(-c2nn(CC3CCCCC3)cc2-c2ccccc2)cc1OC | > 10 | 43.9 | > 10 | 19.1 | – | – | – | – | –
c1coc(-c2nn(CC3CCCCC3)c3ccccc23)c1 | 0.18 | 87.8 | 0.26 | 73.9 | – | – | – | – | –
COc1cccc(Cn2nc(-c3cccs3)cc2-c2ccccc2)c1 | 1.76 | 63.3 | > 10 | 32.8 | – | – | – | – | –
c1ccc(Cn2nc(-c3cccs3)cc2-c2ccccc2)cc1 | 0.0745 | 70 | > 10 | 39.1 | – | – | – | – | –
c1ccc(Cn2nc(-c3ccco3)cc2-c2ccccc2)cc1 | 0.0751 | 73 | > 10 | 46 | – | – | – | – | –
COc1ccc(-c2nn(Cc3ccccc3)cc2-c2ccccc2)cc1OC | 218 | 68.2 | > 10 | 7.02 | – | – | – | – | –
Fc1cccc(Cn2cc(-c3ccccc3)c(-c3cccs3)n2)c1 | 1.79 | 63.7 | > 10 | 33.6 | – | – | – | – | –
O=C(c1ccccc1F)n1nc(-c2ccco2)c2ccccc21 | 0.34 | 69.5 | > 10 | -9.57 | – | – | – | – | –
CCCCCCCn1nc(-c2cccs2)cc1-c1ccccc1 | > 10 | 16.6 | > 10 | 21.1 | – | – | – | – | –
O=Cc1ccc(-c2nn(C(=O)c3ccccc3F)c3ccccc23)o1 | > 10 | 31.8 | > 10 | 52.2 | – | – | – | – | –
OC(c1ccc(-c2nn(Cc3ccccc3F)c3ccccc23)o1)C(F)(F)F (stereo unspecified) | > 10 | 35.7 | > 10 | 10.3 | – | – | – | – | –
